Experimental data: patent US20250314644A1, “METHODS COMPRISING DETECTION OF ADP-HEPTOSE” (CHILDREN'S HOSPITAL MEDICAL CENTER, priority 2023, published 2025)

Key:
[1] = test system: Dnmt3a^KO; Alpk1^KO cells; assay: RNA-sequencing of HSPCs treated in vitro with ADP-heptose or H2O for 90 minutes; assay type: cell-based, mouse; conditions: vs H2O
WT HSCs = assay: ADP-heptose treatment of low-dose irradiated chimeric mice: donor HSC number and engraftment; assay type: in vivo, mouse; conditions: ADP-heptose 0.5 mg/kg for 2 weeks
From the text: To model pre-leukemic clonal hematopoiesis, chimeric mice were generated as aas follows. Briefly, mixture of 1×10^6 whole bone marrow cells (WBM) were obtained from Poly (I:C) treated wild-type (Dnmt3a^+/+; MxCre^+, called Dnmt3a^WT) or mutant mice (Dnmt3a^f/f; MxCre^+, called Dnmt3a^KO) or double mutant mice (Dnmt3a^f/f; MxCre^+; Alpk1^KO, called Dnmt3a^KO; Alpk1^KO) (CD45.2^+), and transplanted into low-dose (2.5 Gy) irradiated recipient mice (CD45.1^+; 6-10 weeks of age). 8 weeks post-transplant, chimeric mice were treated with either water (H2O) or DSS (2.5%) for 1 week, and allowed to recover for 1 more week on water after which flow cytometry was performed on BM. In separate experiment, chimeric mice were pre-treated with broad spectrum antibiotics (ABX) for 4 weeks, and then subjected to DSS for 1 week after which flow cytometry performed on BM. In a separate set of experiment, chimeric mice were treated with either H2O or ADP-heptose (0.5 mg/kg) for 2 weeks, and flow cytometry performed after 2 more weeks on BM. In all the experiments, secondary transplantation was performed by purifying donor HSCs (CD45.2^+Lin^−Sca-1^+c-Kit^+Flk2^−CD150^+CD48^−) and transplanting 100 HSCs with 200,000 helper WBM cells (CD45.1+) into lethally irradiated (8 Gy) recipient mice (CD45.1^+), and donor chimerism in PB examined by flow cytometry.

[2] = test system: MAPK signaling in Dnmt3a^−/− HSPCs; assay: Immunoblot of MAPK signaling; assay type: cell-based, mouse
Method: (A) ALPK1 and TIFA mRNA expression in Dnmt3a^WT and Dnmt3a^KO HSC from the publicly available dataset GSE98191. (B) Immunoblot analysis of HSPCs from WT, Alpk1^KO, Dnmt3a^KO, and Dnmt3a^KO; Alpk1^KO mice stimulated with indicated concentrations of ADP-heptose for 30 minutes to examine MAPK signaling.
Protein concentration was evaluated by bicinchoninic acid (BCA) assay (Pierce, Cat #23225). SDS sample buffer was added to the lysates and the proteins were separated by SDS-polyacrylamide gel electrophoresis, transferred to PVDF or nitrocellulose membranes (BIO-RAD, Cat #1620112), and analyzed by immunoblotting. […] Membranes were visualized using ECL Western Blotting Substrate (Pierce, #32106) or SuperSignal West Femto Substrate (Thermo Scientific, #34096), imaged on a BIO-RAD ChemiDoc Touch Imaging system and analyzed with Image lab software 6.0.1 (Biorad) or Image J (22930834).

Nc1ncnc2c1ncn2[C@@H]1O[C@H](COP(=O)(O)OP(=O)(O)O[C@@H]2O[C@H]([C@H](O)CO)[C@@H](O)[C@H](O)[C@@H]2O)[C@@H](O)[C@H]1O [ADP-heptose, ADP-D-glycero-β-D-manno-heptose]
logFC 7fp418 [1]: −0.871 | logFC 1110019D14Rik [1]: −0.854 | logFC 1700037C18Rik [1]: 0.829 | logFC 2810408A11Rik [1]: −0.812 | logFC 4930451G09Rik [1]: 0.8284 | logFC 4933407K13Rik [1]: −0.692 | logFC 5031425F14Rik [1]: 0.715 | logFC 9330182L06Rik [1]: −1.241 | logFC A430105I19Rik [1]: 1.602 | logFC A930013F10Rik [1]: 0.5873 | logFC AI607873 [1]: 0.7333 | logFC Abcb4 [1]: 0.7782 | logFC Ambp [1]: 0.8742 | logFC Aqp1 [1]: 0.6005 | logFC Arg1 [1]: 1.214 | logFC Azin2 [1]: 0.7217 | logFC BC100530 [1]: −0.982 | logFC Bambi-ps1 [1]: −0.651 | logFC Caprin2 [1]: −0.787 | logFC Ces1d [1]: −0.735 | logFC Cgref1 [1]: 1.029 | logFC Ctsf [1]: −0.836 | logFC Ctsk [1]: −0.954 | logFC D630023F18Rik [1]: −0.819 | logFC Epha7 [1]: −0.73 | logFC Erdr1 [1]: −1.542 | logFC Foxd4 [1]: −0.677 | logFC Gas6 [1]: −0.682 | logFC Gbp9 [1]: 1.092 | logFC Gm4285 [1]: −1.087 | logFC Gm5069 [1]: −0.82 | logFC Gm15694 [1]: 0.9249 | logFC Gm16023 [1]: 0.8494 | logFC Gm21057 [1]: −1.133 | logFC Hist1h1e [1]: −0.799 | logFC Hist1h2be [1]: −1.019 | logFC Hist1h4h [1]: −1.162 | logFC Hmga1 [1]: −0.621 | logFC Irf7 [1]: 0.6473 | logFC Isg15 [1]: 0.6427 | logFC Kif1a [1]: −0.954 | logFC Kif9 [1]: 1.387 | logFC Lars2 [1]: −1.194 | logFC Lrrc51 [1]: 1.737 | logFC Ltc4s [1]: 0.978 | logFC Ly6i [1]: 0.764 | logFC Nefh [1]: 0.6222 | logFC Nr1h3 [1]: −0.655 | logFC Oas1g [1]: 0.6168 | logFC Oas2 [1]: 0.8787 | logFC Oas3 [1]: 0.6718 | logFC Oasl1 [1]: 0.7357 | logFC Oasl2 [1]: 0.9665 | logFC Paqr3 [1]: −0.758 | logFC Pcsk9 [1]: −1.15 | logFC Rhcg [1]: 1.146 | logFC Rn45s [1]: −1.533 | logFC Rsad2 [1]: 0.9464 | logFC Rtp4 [1]: 1.172 | logFC Sdhaf3 [1]: −0.856 | logFC Sfxn4 [1]: −1.009 | logFC Slfn5 [1]: 1.078 | logFC Stac3 [1]: 0.7901 | logFC Stbd1 [1]: 0.9881 | logFC Stxbp3-ps [1]: −0.814 | logFC Syp [1]: 0.7928 | logFC Tagln [1]: 1.205 | logFC Tchh [1]: 1.26 | logFC Tle6 [1]: −0.734 | logFC Usp18 [1]: 0.7247 | logFC Xaf1 [1]: 0.6469 | logFC Zbp1 [1]: 0.6712 | logFC Zdhhc2 [1]: 0.7176 | logFC Zdhhc15 [1]: 0.9343 | logFC Zfp54 [1]: −0.829 | WT HSCs numbers and engraftment in recipient mice (WT HSCs): did not affect | MAPK signaling [2]: did not result in MAPK signaling
